This is an account of results in ChEMBL document CHEMBL1208727, “Synthesis and pharmacological evaluation of aryl aminosulfonamide derivatives as potent 5-HT(6) receptor antagonists” (Bioorg Med Chem Lett, 2010).

pIC50, pKi: −log10 of the molar value. The source made the active and inactive calls. The rule behind the calls is not given here.

Data set [1] concerns the target 5-hydroxytryptamine receptor 6 (Homo sapiens, UniProt P50406). The data set is described as follows: Binding affinity to human recombinant 5HT6 receptor expressed in CHO cells coexpressing pCRE-Luc assessed as inhibition of serotonin-induced increase in cAMP level by luciferase reporter gene assay. In kind it is cell-based. (Changes in cAMP serve as a functional read-out for many G protein-coupled receptors.)

Data set [2] has as its target Cytochrome P450 2D6 (Homo sapiens, UniProt P10635). The data set is described as follows: Inhibition of human CY2D6.
Data set [3] deals with Cytochrome P450 3A4 (Homo sapiens, UniProt P08684). The data set is described as follows: Inhibition of human CY3A4.
A short description of data set [4]: Metabolic stability in human liver microsomes at […] after 30 mins. The note with it: read-out: Stability. The format is ADME, Microsome. A general note: Liver microsomes are vesicles of endoplasmic reticulum, rich in cytochrome P450 enzymes.
Data set [5] can be described thus: Metabolic stability in Wistar rat liver microsomes at […] after 30 mins. The format is ADME, Microsome. The conditions noted are these: read-out: Stability.
Data set [6] in a line: Cmax in Wistar rat at 10 mg/kg, po. The format is ADME, organism-based. On the set-up: dose 10 mg/kg, route oral. The note with it: in vivo.
Data set [7] is described as follows: AUCt in Wistar rat at 10 mg/kg, po. The format is ADME, organism-based. Also on record: dose 10 mg/kg, route oral. The note with it: plasma.
Data set [8] is described as follows: Half life in Wistar rat at 10 mg/kg, po. The format is ADME, organism-based. Also on record: dose 10 mg/kg, route oral. The conditions noted are these: in vivo.
The subject of data set [9] is Rattus norvegicus. The data set can be described thus: Apparent volume of distribution in Wistar rat at 10 mg/kg, po. Also on record: dose 10 mg/kg, route oral. The note with it: in vivo. In kind it is ADME, organism-based.
The nature of data set [10]: Clearance in Wistar rat at 10 mg/kg, po. The format is ADME, organism-based. Also on record: dose 10 mg/kg, route oral. The conditions noted are these: in vivo.
Data set [11] can be described thus: Oral bioavailability in Wistar rat at 10 mg/kg. In kind it is ADME, organism-based. The note with it: in vivo.
Data set [12] in a line: Cmax in Wistar rat at 10 mg/kg, iv. The conditions noted are these: in vivo. On the set-up: dose 10 mg/kg, route intravenous. In kind it is ADME, organism-based.
Data set [13] in a line: AUCt in Wistar rat at 10 mg/kg, iv. In kind it is ADME, organism-based. On the set-up: dose 10 mg/kg, route intravenous. The conditions noted are these: plasma.
Data set [14] is described as follows: Half life in Wistar rat at 10 mg/kg, iv. The format is ADME, organism-based. The conditions noted are these: in vivo. On the set-up: dose 10 mg/kg, route intravenous.
A short description of data set [15]: Apparent volume of distribution in Wistar rat at 10 mg/kg, iv. In kind it is ADME, organism-based. On the set-up: dose 10 mg/kg, route intravenous. The conditions noted are these: in vivo, read-out: Vz.
Data set [16] can be described thus: Clearance in Wistar rat at 10 mg/kg, iv. In kind it is ADME, organism-based. On the set-up: dose 10 mg/kg, route intravenous. The conditions noted are these: in vivo.
The nature of data set [17]: Ratio of drug level brain to plasma in Wistar rat. In kind it is ADME.
Data set [18] concerns Rattus norvegicus. The data set can be described thus: Cognitive enhancing effect in Wistar rat at 10 mg/kg, po by novel object recognition test. The format is functional, organism-based. On the set-up: dose 10 mg/kg.
Data set [19] is filed under the species Rattus norvegicus. The data set is described as follows: Cognitive enhancing effect against scopolamine-induced acquisition memory deficit in Wistar rat by morris water maze test. The format is functional, organism-based.

5-hydroxytryptamine receptor 6, sequence (P50406 whole entry): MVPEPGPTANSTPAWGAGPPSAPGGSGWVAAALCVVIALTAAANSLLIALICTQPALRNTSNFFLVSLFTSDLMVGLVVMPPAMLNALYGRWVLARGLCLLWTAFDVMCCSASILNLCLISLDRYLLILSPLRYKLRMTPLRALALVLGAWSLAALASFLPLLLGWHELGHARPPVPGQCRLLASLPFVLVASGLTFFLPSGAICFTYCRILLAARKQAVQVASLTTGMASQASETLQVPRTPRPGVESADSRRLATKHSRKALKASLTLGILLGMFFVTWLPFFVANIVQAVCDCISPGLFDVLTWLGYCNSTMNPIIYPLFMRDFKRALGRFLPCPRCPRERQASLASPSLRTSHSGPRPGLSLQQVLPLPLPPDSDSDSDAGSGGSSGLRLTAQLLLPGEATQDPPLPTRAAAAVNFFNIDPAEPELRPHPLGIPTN
Cytochrome P450 2D6, sequence (P10635 whole entry): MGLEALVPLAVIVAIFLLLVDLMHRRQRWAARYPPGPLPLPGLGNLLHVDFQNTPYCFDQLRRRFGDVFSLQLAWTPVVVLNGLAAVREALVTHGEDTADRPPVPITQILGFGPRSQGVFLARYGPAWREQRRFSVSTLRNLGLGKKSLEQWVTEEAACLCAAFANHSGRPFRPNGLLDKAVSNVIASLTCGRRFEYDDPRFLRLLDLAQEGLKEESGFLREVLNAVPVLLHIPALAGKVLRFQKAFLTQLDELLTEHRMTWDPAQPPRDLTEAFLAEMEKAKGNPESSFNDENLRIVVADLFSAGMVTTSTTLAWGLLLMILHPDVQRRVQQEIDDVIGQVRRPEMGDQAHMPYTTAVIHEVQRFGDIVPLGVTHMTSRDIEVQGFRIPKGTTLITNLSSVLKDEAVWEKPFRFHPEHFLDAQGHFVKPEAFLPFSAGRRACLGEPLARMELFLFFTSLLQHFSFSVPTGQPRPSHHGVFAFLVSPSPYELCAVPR
Cytochrome P450 3A4, sequence (P08684 whole entry): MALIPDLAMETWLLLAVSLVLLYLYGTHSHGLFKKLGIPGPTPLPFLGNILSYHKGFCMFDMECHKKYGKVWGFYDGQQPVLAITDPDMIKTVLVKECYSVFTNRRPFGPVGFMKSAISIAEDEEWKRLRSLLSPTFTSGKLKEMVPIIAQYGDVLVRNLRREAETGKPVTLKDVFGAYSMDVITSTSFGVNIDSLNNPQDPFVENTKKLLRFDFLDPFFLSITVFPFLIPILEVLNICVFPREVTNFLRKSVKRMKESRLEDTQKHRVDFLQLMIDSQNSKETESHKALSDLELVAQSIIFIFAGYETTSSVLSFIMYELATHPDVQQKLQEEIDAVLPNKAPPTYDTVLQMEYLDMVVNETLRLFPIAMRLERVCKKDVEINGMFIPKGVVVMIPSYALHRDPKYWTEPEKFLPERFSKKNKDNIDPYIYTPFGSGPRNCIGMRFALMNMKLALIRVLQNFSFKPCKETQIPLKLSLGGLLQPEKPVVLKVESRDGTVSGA

With `COc1ccc(S(=O)(=O)Nc2ccccc2Cl)cc1NC1CCN(C)CC1`, in data set [1], the Kb came to 0.584 nM.

`COc1ccc(NS(=O)(=O)c2ccccc2OC(F)F)cc1N1CCNCC1`: in [1], the pKi – broadly, −log10 of the Ki, conventionally taken in molar units – is over 8.00.

As to `COc1ccc(NS(=O)(=O)c2cccc(NC3CCN(C)CC3)c2)c(OC)c1`, in [1], the Kb amounted to 10 nM.

As to `CCc1ccc(S(=O)(=O)Nc2ccccc2Br)cc1NC1CCN(C)CC1`, in data set [1], the Kb is 0.19 nM. Further, the pIC50 – broadly, −log10 of the IC50, conventionally taken in molar units – in [2] is under 4.35; in data set [3] it was 5.02. Also, the remaining at 0.5 h, […] came out at 26% in data set [4] and 99% in [5].

As for `Cc1ccc(NS(=O)(=O)c2cccc(NC3CCN(C)CC3)c2)c(C)c1`, the Kb in data set [1] was over 10000 nM.

For `COc1ccc(OC)c(NS(=O)(=O)c2cccc(NC3CCN(C)CC3)c2)c1`, the Kb in data set [1] is 16 nM.

On to `COc1ccc(S(=O)(=O)Nc2ccccc2Br)cc1NC1CCN(C)CC1`, for which the Kb in data set [1] came out at 0.296 nM.

In the case of `COc1ccc(S(=O)(=O)Nc2ccccc2Cl)cc1N(C)C1CCNCC1`, the Kb in [1] stood at 0.86 nM.

On to `CCN(c1cc(S(=O)(=O)Nc2ccccc2)ccc1OC)C1CCN(C)CC1`, for which the Kb in data set [1] amounted to 18.6 nM.

As for `CN1CCC(Nc2cccc(S(=O)(=O)Nc3ccc(Br)cc3F)c2)CC1`, the Kb in data set [1] was found to be 12.2 nM.

Consider `COc1ccc(S(=O)(=O)NCCc2ccccc2Cl)cc1NC1CCN(C)CC1`, for which the Kb in data set [1] was 26 nM.

In the case of `COc1ccc(S(=O)(=O)Nc2ccccc2)cc1NC1CCN(C)CC1`, the Kb in data set [1] is 1.23 nM.

As to `CN1CCC(Nc2cccc(S(=O)(=O)Nc3c(F)cc(F)cc3Br)c2)CC1`, the Kb in data set [1] is over 10000 nM.

For `COc1ccc(S(=O)(=O)Nc2ccccc2Br)cc1N(C)C1CCNCC1`, in data set [1], the Kb was determined as 0.2 nM.

`CCc1ccc(S(=O)(=O)Nc2ccccc2Br)cc1NC1CCNCC1`: the Kb in [1] amounted to 0.1 nM.

With `COc1ccc(S(=O)(=O)Nc2cc(C)ccc2OC)cc1NC1CCN(C)CC1`, the Kb in data set [1] was 0.02 nM.

For the compound `COc1ccc(S(=O)(=O)Nc2ccccc2Br)cc1NC1CCNCC1`, in data set [1], the Kb is 0.6 nM.

For the compound `Cc1ccc(S(=O)(=O)Nc2ccccc2Br)cc1NC1CCN(C)CC1`, in data set [1], the Kb was 1.31 nM.

On to `CCc1ccc(S(=O)(=O)Nc2cc(Cl)cc(Cl)c2OC)cc1NC1CCN(C)CC1`, for which the Kb in data set [1] is 1.65 nM.

With `COc1ccc(S(=O)(=O)NCc2ccccc2)cc1NC1CCNCC1`, the Kb in [1] amounted to 4.26 nM.

With `COc1ccc(S(=O)(=O)NCc2ccccc2)cc1N(C)C1CCN(C)CC1`, the Kb in data set [1] was 3.9 nM.

`COc1ccc(S(=O)(=O)NCCc2ccccc2Br)cc1NC1CCN(C)CC1`: in data set [1], the Kb was determined as 38 nM.

With `COc1ccc(S(=O)(=O)Nc2ccccc2Cl)cc1NC1CCNCC1`, the Kb in [1] was 0.48 nM.

In the case of `COc1ccc(S(=O)(=O)NCc2ccccc2)cc1NC1CCN(C)CC1`, in [1], the Kb came to 3.36 nM.

As for `COc1ccc(S(=O)(=O)Nc2cc(Cl)cc(Cl)c2OC)cc1NC1CCN(C)CC1`, the Kb in data set [1] worked out at 0.02 nM. Also, the Cmax – broadly, the maximum level reached in the sampled fluid or tissue – is 536 ng/mL in [6] and 1920 ng/mL in data set [12]. Besides, the AUC(0-t) (commonly the area under the concentration-time curve up to a stated or last time point) in data set [7] is 941 ng·h/mL; in data set [13] it was 2530 ng·h/mL. Also, the half-life (commonly how long it takes for the measured level to halve) in [8] was 1.72 h; in data set [14] it was 2.96 h. For the same compound, in data set [9], the Vz is 34.332 L/kg. Also, in data set [10], the CL/F (commonly the apparent clearance, not corrected for the fraction that reaches the circulation) was 207 mL/min/kg. For the same compound, the bioavailability (in general, dose-corrected exposure relative to a reference, in per cent) in [11] was 38%. Also, the Vd in [15] came to 16.9 L/kg. Besides, the clearance (in general, a measure of how efficiently the substance is removed, as volume per time) in data set [16] was 65.5 mL/min/kg. Moreover, the pIC50 in [2] was 4.38; in data set [3], 5.07. Besides, the remaining at 0.5 h, […] in data set [4] turned out to be 21%; in data set [5], 77%. Moreover, the Kp (commonly the ratio of the level in a tissue or fluid to that in plasma or blood) in data set [17] amounted to 0.08. Besides, the result in data set [18] and in data set [19] was Active.

Take `COc1ccc(S(=O)(=O)NCc2ccccc2)cc1N(C)C1CCNCC1`: the Kb in data set [1] came to 2.65 nM.
